Data on six molecules can be found in US20090022806A1, “Nanoparticle and polymer formulations for thyroid hormone analogs, antagonists and formulations and uses thereof” (priority 2006, published 2009).

In brackets after ≈: the same amount, converted by molar mass. Entries after “also recorded” stand apart in the source; their conditions may differ.

The test system of series [1] is chick chorioallantoic membrane (CAM). The series can be described thus: Chick chorioallantoic membrane (CAM) assay of angiogenesis. Type of series: in vivo. As for the experimental part:
Chorioallantoic membrane (CAM) Model of Angiogenesis: In vivo Neovascularization was examined by methods described previously. 9-12 Ten-day-old chick embryos were purchased from SPAFAS (Preston, Conn.) and incubated at 37° C. with 55% relative humidity. A hypodermic needle was used to make a small hole in the shell concealing the air sac, and a second hole was made on the broad side of the egg, directly over an avascular portion of the embryonic membrane that was identified by candling. A false air sac was created beneath the second hole by the application of negative pressure at the first hole, causing the CAM to separate from the shell. A window approximately 1.0 cm 2 was cut in the shell over the dropped CAM with a small-crafts grinding wheel (Dremel, division of Emerson Electric Co.), allowing direct access to the underlying CAM. FGF2 (1 μg/mL) was used as a standard proangiogenic agent to induce new blood vessel branches on the CAM of 10-day-old embryos. Sterile disks of No. 1 filter paper (Whatman International) were pretreated with 3 mg/mL cortisone acetate and 1 mmol/L PTU and air dried under sterile conditions. Thyroid hormone, hormone analogues, FGF2 or control solvents, and inhibitors were then applied to the disks and the disks allowed to dry. The disks were then suspended in PBS and placed on growing CAMs. […] At 24 hours, the MAPK cascade inhibitor PD 98059 was also added to CAMs topically by means of the filter disks.
After incubation at 37° C. with 55% relative humidity for 3 days, the CAM tissue directly beneath each filter disk was resected from control and treated CAM samples. Tissues were washed 3× with PBS, placed in 35-mm Petri dishes (Nalge Nunc), and examined under an SV6 stereomicroscope (Zeiss) at ×50 magnification. Digital images of CAM sections exposed to filters were collected using a 3-charge-coupled device color video camera system (Toshiba) and analyzed with Image-Pro software (Media Cybernetics). The number of vessel branch points contained in a circular region equal to the area of each filter disk were counted. One image was counted in each CAM preparation, and findings from 8 to 10 CAM preparations were analyzed for each treatment condition (thyroid hormone or analogues, FGF2, FGF2 antibody, PD 98059). In addition, each experiment was performed 3 times. The resulting angiogenesis index is the mean±SEM of new branch points in each set of samples.
Ten-day-old chick embryos were purchased £tom SPAFAS (Preston, Conn.) and were incubated at 37° C. with 55% relative humidity. A hypodermic needle was used to make a small hole in the blunt end of the egg and a second hole was made on the broad side of the egg, directly over an avascular portion of the embryonic membrane. Mild suction was applied to the first hole to displace the air sac and drop the CAM away from the shell. Using a Dremel model craft drill (Dremel, Racine, Wis.), a approx. 1.0 cm^2 window was cut in the shell over the false air sac, allowing access to the CAM. Sterile disks of No. 1 filter paper (Whatman, Clifton, N.J.) were pretreated with 3 mg/ml cortisone acetate and 1 mMm propylthiouracil and air dried under sterile conditions. […] The disks were then suspended in PBS and placed on growing CAMS. After incubation for 3 days, the CAM beneath the filter disk was resected and rinsed with PBS. Each membrane was placed in a 35 mm Petri dish and examined under an SV6 stereo-microscope at 50× magnification. Digital images were captured and analyzed with Image-Pro software (Mediacybemetics). The number of vessel branch points contained in a circular region equal to the filter disk were counted. One image from each of 8-10 CAM preparations for each treatment condition was counted, and in addition each experiment was performed 3 times.
Ten-day-old chick embryos were purchased from SPAFAS (Preston, Conn.) and were incubated at 37° C. with 55% relative humidity. Chick CAM assays were performed as previously described.

Series [2] relates to phosphorylated ERK1/2 in ECV304 endothelial cells. Description: MAPK (ERK1/2) activation in ECV304 cells, nuclear pERK1/2 immunoblot. Type of series: cell-based. Particulars: PD 98059 30 μmol/L or CGP41251 100 nmol/L for 30 minutes before 10^−7 M T4. As for the experimental part:
ECV304 endothelial cells were cultured in M199 medium with 0.25% hormone-depleted serum 13 for 2 days. […] Nuclear fractions were pre-pared from all samples by our method reported previously, the proteins separated by polyacrylamide gel electrophoresis, and transferred to membranes for immunoblotting with antibody to phosphorylated ERK 1/2.
For orientation: A western blot detects proteins with antibodies after separation by electrophoresis.

Series [3] concerns Human dermal micro-vascular endothelial cells (HDMEC). The series can be described thus: Three-dimensional human micro-vascular endothelial sprouting assay. It counts as cell-based. Particulars: tetrac 0.1 μM; PD 98059; XT199. The method, then:
In Vitro Three-Dimensional Sprout Angiogenesis of Human Dermal Micro-Vascular Endothelial Cells (HDMEC) Cultured on Micro-Carrier Beads Coated with Fibrin: Confluent HDMEC (passages 5-10) were mixed with gelatin-coated Cytodex-3 beads with a ratio of 40 cells per bead. Cells and beads (150-200 beads per well for 24-well plate) were suspended with 5 ml EBM+15% normal human serum, mixed gently every hour for first 4 hours, then left to culture in a CO2 incubator overnight. The next day, 10 ml of fresh EBM+5% HS were added, and the mixture was cultured for another 3 hours. Before experiments, the culture of EC-beads was checked; then 500 ul of PBS was added to a well of 24-well plate, and 100 ul of the EC-bead culture solution was added to the PBS. The number of beads was counted, and the concentration of EC/beads was calculated.
A fibrinogen solution (1 mg/ml) in EBM medium with or without angiogenesis factors or testing factors was prepared. For positive control, 50 ng/ml VEGF+25 ng/ml FGF2 was used. EC-beads were washed with EBM medium twice, and EC-beads were added to fibrinogen solution. The experiment was done in triplicate for each condition. The EC-beads were mixed gently in fibrinogen solution, and 2.5 ul human thrombin (0.05 U/ul) was added in 1 ml fibrinogen solution; 300 ul was immediately transferred to each well of a 24-well plate. The fibrinogen solution polymerizes in 5-10 minutes; after 20 minutes, we added EBM+20% normal human serum+10 ug/ml aprotinin. The plate was incubated in a CO2 incubator. It takes about 24-48 hours for HDMEC to invade fibrin gel and form tubes.
A micro-carrier in vitro angiogenesis assay previously designed to investigate bovine pulmonary artery endothelial cell angiogenic behavior in bovine fibrin gels [Nehls and Drenckhahn, 1995a, b] was modified for the study of human microvascular endothelial cell angiogenesis in three-dimensional ECM environments (FIGS. 1 and 2). Briefly, human fibrinogen, isolated as previously described [Feng et al, 1999], was dissolved in M199 medium at a concentration of 1 mg/ml (pH 7.4) and sterilized by filtering through a 0.22 micron filter. An isotonic 1.5 mg/ml collagen solution was prepared by mixing sterile Vitrogen 100 in 5×M199 medium and distilled water. The pH was adjusted to 7.4 by 1N NaOH. In certain experiments, growth factors and ECM proteins (such as VEGF, bFGF, PDGF-BB, serum, gelatin, and fibronectin) were added to the fibrinogen or collagen solutions. About 500 EC-beads were then added to the 1 mg/ml fibrinogen or 1.5 mg/ml collagen solutions. Subsequently, EC-beads-collagen or EC-beads-fibrinogen suspension (500 EC-beads/ml) was plated onto 24-well plates at 300 ul/well. EC-bead-collagen cultures were incubated at 37° C. to form gel. The gelling of EC-bead-fibrin cultures occurred in less than 5 minutes at room temperature after the addition of thrombin to a final concentration of 0.5 U/ml. After gelation, 1 ml of fresh assay medium (EBM supplemented with 20% normal human serum for HDMEC or EBM supplemented with 10% fetal bovine serum was added to each well. The angiogenic response was monitored visually and recorded by video image capture. Specifically, capillary sprout formation was observed and recorded with a Nikon Diaphot-TMD inverted microscope (Nikon Inc.; Melville, N.Y.), equipped with an incubator housing with a Nikon NP-2 thermostat and Sheldon #2004 carbon dioxide flow mixer. The microscope was directly interfaced to a video system consisting of a Dage-MTI CCD-72S video camera and Sony 12″ PVM-122 video monitor linked to a Macintosh G3 computer. The images were captured at various magnifications using Adobe Photoshop. The effect of angiogenic factors on sprout angiogenesis was quantified visually by determining the number and percent of EC-beads with capillary sprouts. One hundred beads (five to six random low power fields) in each of triplicate wells were counted for each experimental condition. All experiments were repeated at least three times. […]

The nature of the next series: Solubility. Type of series: physicochemical. The conditions noted are these: in water after preparing a solution at 10^−1 M in DMSO. The method, then: Yield: 50%; off-white solid; recrist. solvt.: EtOH; TLC: Rf=0.43 (EtOAc/EtOH 9/1); RPTLC: Rf=0.43 (AcOH/H2O 8/2); mp=136° C.; IR (ν cm^−1): 1730 (CO); ^1H NMR (DMSO-d6) δ (ppm): 7.79 (s, 2H, ArH), 7.14 (s, 2H, ArH), 4.06-4.02 (m, 2H, CH2), 3.93-3.89 (q, J=7.0 Hz, 2H, CH2), 3.59-3.56 (t, J=7.0 Hz, 1H, CH), 2.80-2.77 (m, 2H, CH2), 1.88 (br, 1H, NH), 1.41-1.39 (t, J=7.0 Hz, 3H, CH3), 1.15-1.12 (t, J=7.0 Hz, 3H, CH3); MS (ESI+) m/z 911.7 [(M+DMSO)^+, 100], 833.7 [(M+H)+, 75]; Anal. Calcd. for C19H19I4NO4: C, 27.40; H, 2.30; N, 1.68. Found: C, 27.54; H, 1.94; N, 1.66. Solubility 10^−3 M in water after preparing a solution at 10^−1 M in DMSO. It is noteworthy that if a suspension of L-T4 is prepared overnight, the yield can be increased.

Series [4] has as its system doxorubicin-resistant MCF7/R cells. The series can be described thus: Doxorubicin-resistant tumor xenograft in nude mice. Particulars: doxorubicin alone 2 mg/kg, three injections. As for the experimental part:
(§1) Strain CD1 nude mice were obtained from Charles River Laboratories (Wilmington, Mass.) at approximately 5-6 weeks of age and weighing approximately 30 g. Animals received s.c. implantation of doxorubicin-resistant MCF7/R cells (10^6 cells in 100 μl). When tumors were approximately 50 mm^3 in size, the animals were pair matched and divided into four groups of five mice as follows: a) vehicle treated controls, b) mice treated with tetrac (30 mg/kg), c) mice treated doxorubicin (2 mg/kg), d) mice treated with the combination of both drugs. A total of three injections (separated by 3 days) were performed. Mice were weighed, checked for clinical signs of drug toxicity and lethality. Tumor measurements were made with a caliper three times weekly for up to 3 weeks and converted to tumor volume by using the formula W×L^2/2. Tumor growth curves were generated.

Series [5] is described as follows: Doxorubicin-resistant tumor xenograft in nude mice. The conditions noted are these: CD1 nude, mouse, in vivo. The method, then: as §1
The next series relates to NG108-15 cells. Description: cells. Particulars: Homo sapiens, NG108-15, read-out: Half maximal inhibition of cell-cell adhesion.
The subject of series [6] is EC migration toward the extracellular matrix protein vitronectin. Description: Cellular migration assay toward vitronectin (chemotaxis chamber). Type of series: cell-based. Particulars: Vitronectin 25 ug in lower chamber alone.
Method: These assays were performed using a Neuroprobe 96 well disposable chemotaxis chamber with an 8 μm pore size. This chamber allowed for quantitation of cellular migration towards a gradient of either vitronectin or osteopontin. Cultured cells were removed following a standardized method using EDTA/Trypsin (0.01%/0.025%). Following removal, the cells were washed twice and resuspended (2×10^6/ml) in EBM (Endothelial cell basal media, Clonetics Inc.). Add either vitronectin or osteopontin (33 μl) at 0.0125-100 μg/ml to the lower wells of a disposable chemotaxis chamber, and then assemble using the preframed filter. The cell suspension (45 μl) was added to a polypropylene plate containing 5 μl of test agent at different concentrations and incubated for 10 minutes at 22° C. Add 25 μl of cell/test agent suspension to the upper filter wells then incubate overnight (22 hours at 37° C.) in a humidified cell culture incubator. After the overnight incubation, non-migrated cells and excess media were gently removed using a 12 channel pipette and a cell scraper. The filters were then washed twice in PBS (no Ca^+2 or Mg^+2) and fixed with 1% formaldehyde. Membranes of migrated cells were permeated with Triton X-100 (0.2%) then washed 2-3 times with PBS. […] Chemotaxis was quantitatively determined by fluorescence detection using a Cytofluor II (530 excitation/590 emission).

As to `COc1cccc(-c2cc(=O)c3ccccc3o2)c1N` [PD 98059], the “inhibition of angiogenesis induced by FGF2 (1 μg/mL)” value in series [1] (PD 98059) is “effectively blocked; also recorded: also inhibited”. Also, the “inhibition of angiogenesis stimulated by T4 (0.1 μmol/L) and T3 (1 nmol/L) together” value in series [1] (PD 98059 3 μmol/L) is listed as “completely blocked; also recorded: fully inhibited”. Also, the “block of the pro-angiogenesis effect of T4 or FGF2” value in [1] (PD 98059 at 0.8-8 μg) is recorded as “totally blocked”. Further, the “inhibition of T4-induced ERK1/2 activation” value in series [2] is given as “inhibited; also recorded: blocked by both inhibitors”. For the same molecule, the “inhibition of the pro-angiogenesis action of T3, T4 or T4-agarose” value in [3] is “significantly (P<0.01) blocked”. As a reminder, the melting point is the temperature of the solid-liquid transition. Molecule `CC(C)(C)OC(=O)NC(Cc1cc(I)c(Oc2cc(I)c(O)c(I)c2)c(I)c1)C(=O)O` (centres unmarked) [PRIAB1, 2-[(tert-butoxycarbonyl)amino]-3-[4-(4-hydroxy-3,5-diiodophenoxy)-3,5-diiodophenyl]propanoic acid] returned a melting point of 212 °C. As usually defined, the solubility is the concentration that dissolves in the medium under given conditions. A lower solubility goes with a poorly soluble substance. Consider `CCNC(Cc1cc(I)c(Oc2cc(I)c(O)c(I)c2)c(I)c1)C(=O)OCC` (centres unmarked) [PRIAB20, ethyl-2-(ethylamino)-3-[4-(4-hydroxy-3,5-diiodophenoxy)-3,5-diiodophenyl]propanoate], for which, in the series “Solubility”, the solubility stood at 1000 µM (≈ 833 µg/mL). In the case of `COc1cccc2c1C(=O)c1c(O)c3c(c(O)c1C2=O)C[C@@](O)(C(=O)CO)C[C@@H]3O[C@H]1C[C@H](N)[C@H](O)[C@H](C)O1` [doxorubicin], in series [4], the “effect on tumor growth” value is on record as “no noticeable effect”. Moreover, the MTD in series [5] was 2.5 mg/kg.

As for `CCO` [ethanol], the IC50 in the series on NG108-15 cells fell in the range of 5 to 10 mM.

B1: Vitronectin: extracellular matrix protein used as migration gradient (protein, UniProt P04004 20-478, looked up)
Vitronectin: DQESCKGRCTEGFNVDKKCQCDELCSYYQSCCTDYTAECKPQVTRGDVFTMPEDEYTVYDDGEEKNNATVHEQVGGPSLTSDLQAQSKGNPEQTPVLKPEEEAPAPEVGASKPEGIDSRPETLHPGRPQPPAEEELCSGKPFDAFTDLKNGSLFAFRGQYCYELDEKAVRPGYPKLIRDVWGIEGPIDAAFTRINCQGKTYLFKGSQYWRFEDGVLDPDYPRNISDGFDGIPDNVDAALALPAHSYSGRERVYFFKGKQYWEYQFQHQPSQEECEGSSLSAVFEHFAMMQRDSWEDIFELLFWGRTSAGTRQPQFISRDWHGVPGQVDAAMAGRIYISGMAPRPSLAKKQRFRHRNRKGYRSQRGHSRGRNQNSRRPSRATWLSLFSSEESNLGANNYDDYRMDWLVPATCEPIQSVFFFSGDKYYRVNLRTRRVDTVDPPYPRSIAQYWLGCPAPGHL
In the case of B1, the “Mean EC Migration (Fluorescence Units) + SD” value in [6] is on record as 6,116 ± 185 Fluorescence Units.
